Source: ChEMBL document CHEMBL1201862, “PubChem BioAssay data set” (2004)
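Cultured in 96-well plates, cells were exposed to test compound for 48 hours across five concentrations. GI50 marks 50% less growth.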 The source made the active and inactive calls. Cut-off read from the data, not from the text of the source: active = GI50 up to about 1.1 µM and inactive = higher.

Legend:
Assay in all cases: DTP human tumour cell line panel, 48 h
SNB-75 = system: SNB-75
KM-20L2 = system: KM-20L2
HOP-62 = system: HOP-62
SNB-78 = system: SNB-78
CAKI-1 = system: CAKI-1
OVCAR-5 = system: OVCAR-5
RXF 631 = system: RXF 631
Malme-3M = system: Malme-3M
HCC 2998 = system: HCC 2998
TK-10 = system: TK-10
SNB-19 = system: SNB-19
U-251 = system: U-251
K562 = system: K562
HCT-15 = system: HCT-15
IGROV-1 = system: IGROV-1
UACC-62 = system: UACC-62
SF-539 = system: SF-539
OVCAR-8 = system: OVCAR-8
SK-OV-3 = system: SK-OV-3
NCI-H460 = system: NCI-H460
EKVX = system: EKVX
SF-295 = system: SF-295
HOP-18 = system: HOP-18
NCI-H23 = system: NCI-H23
UACC-257 = system: UACC-257
LOX IMVI = system: LOX IMVI
DMS-273 = system: DMS-273
MOLT-4 = system: MOLT-4
ACHN = system: ACHN
NCI-H522 = system: NCI-H522
A498 = system: A498
M14 = system: M14
SR = system: SR
SW-620 = system: SW-620
NCI-H226 = system: NCI-H226
UO-31 = system: UO-31
OVCAR-3 = system: OVCAR-3
HOP-92 = system: HOP-92
SK-MEL-2 = system: SK-MEL-2
LXFL 529 = system: LXFL 529
DMS-114 = system: DMS-114
786-0 = system: 786-0
M19-MEL = system: M19-MEL
HL-60 = system: HL-60
DLD-1 = system: DLD-1
SN12C = system: SN12C
A549 = system: A549
RXF 393 = system: RXF 393
HT-29 = system: HT-29
SK-MEL-5 = system: SK-MEL-5
KM12 = system: KM12
CCRF-CEM = system: CCRF-CEM
SK-MEL-28 = system: SK-MEL-28
SF-268 = system: SF-268
HCT-116 = system: HCT-116
RPMI-8226 = system: RPMI-8226
XF498 = system: XF498
OVCAR-4 = system: OVCAR-4
COLO 205 = system: COLO 205

Cc1ccccc1/C=C/c1csnn1
GI50 (SNB-75): > 100 µM (inactive)
GI50 (KM-20L2): > 100 µM (inactive)
GI50 (HOP-62): > 100 µM (inactive)
GI50 (SNB-78): > 100 µM (inactive)
GI50 (CAKI-1): > 100 µM (inactive)
GI50 (OVCAR-5): > 100 µM (inactive)
GI50 (RXF 631): > 100 µM (inactive)
GI50 (Malme-3M): > 100 µM (inactive)
GI50 (HCC 2998): > 100 µM (inactive)
GI50 (TK-10): > 100 µM (inactive)
GI50 (SNB-19): > 100 µM (inactive)
GI50 (U-251): > 100 µM (inactive)
GI50 (K562): > 100 µM (inactive)
GI50 (HCT-15): > 42.2 µM
GI50 (IGROV-1): > 100 µM (inactive)
GI50 (UACC-62): > 100 µM (inactive)
GI50 (SF-539): > 100 µM (inactive)
GI50 (OVCAR-8): > 100 µM (inactive)
GI50 (SK-OV-3): > 100 µM (inactive)
GI50 (NCI-H460): > 47.3 µM (inactive)
GI50 (EKVX): > 100 µM (inactive)
GI50 (SF-295): > 100 µM (inactive)
GI50 (HOP-18): > 100 µM (inactive)
GI50 (NCI-H23): > 100 µM (inactive)
GI50 (UACC-257): > 100 µM (inactive)
GI50 (LOX IMVI): > 58.7 µM (inactive)
GI50 (DMS-273): > 100 µM (inactive)
GI50 (MOLT-4): > 100 µM (inactive)
GI50 (ACHN): > 100 µM (inactive)
GI50 (NCI-H522): > 100 µM (inactive)
GI50 (A498): > 100 µM (inactive)
GI50 (M14): > 100 µM (inactive)
GI50 (SR): > 100 µM (inactive)
GI50 (SW-620): > 56.4 µM (inactive)
GI50 (NCI-H226): > 100 µM (inactive)
GI50 (UO-31): > 100 µM (inactive)
GI50 (OVCAR-3): > 100 µM (inactive)
GI50 (HOP-92): > 100 µM (inactive)
GI50 (SK-MEL-2): > 100 µM (inactive)
GI50 (LXFL 529): > 100 µM (inactive)
GI50 (DMS-114): > 40.6 µM (inactive)
GI50 (786-0): > 100 µM (inactive)
GI50 (M19-MEL): > 80.5 µM (inactive)
GI50 (HL-60): 21.1 µM (inactive)
GI50 (DLD-1): > 49.5 µM (inactive)
GI50 (SN12C): > 100 µM (inactive)
GI50 (A549): > 57.3 µM (inactive)
GI50 (RXF 393): > 100 µM (inactive)
GI50 (HT-29): > 100 µM (inactive)
GI50 (SK-MEL-5): > 100 µM (inactive)
GI50 (KM12): > 100 µM (inactive)
GI50 (CCRF-CEM): 60.3 µM (inactive)
GI50 (SK-MEL-28): > 100 µM (inactive)
GI50 (SF-268): > 46.2 µM (inactive)
GI50 (HCT-116): > 44 µM (inactive)
GI50 (RPMI-8226): 33.4 µM (inactive)
GI50 (XF498): > 100 µM (inactive)
GI50 (OVCAR-4): > 100 µM (inactive)
GI50 (COLO 205): > 100 µM (inactive)

CC1=CC2CC(C)C1(C)CCc1ccoc12 (centres undefined)
GI50 (SNB-75): > 100 µM (inactive)
GI50 (KM-20L2): > 100 µM (inactive)
GI50 (HOP-62): > 100 µM (inactive)
GI50 (SNB-78): > 100 µM (inactive)
GI50 (CAKI-1): > 100 µM (inactive)
GI50 (OVCAR-5): > 100 µM (inactive)
GI50 (RXF 631): > 100 µM (inactive)
GI50 (Malme-3M): > 100 µM (inactive)
GI50 (HCC 2998): > 100 µM (inactive)
GI50 (TK-10): > 100 µM (inactive)
GI50 (SNB-19): > 100 µM (inactive)
GI50 (U-251): > 100 µM (inactive)
GI50 (K562): > 100 µM (inactive)
GI50 (HCT-15): > 100 µM
GI50 (IGROV-1): > 100 µM (inactive)
GI50 (UACC-62): > 100 µM (inactive)
GI50 (SF-539): > 100 µM (inactive)
GI50 (OVCAR-8): > 100 µM (inactive)
GI50 (SK-OV-3): > 100 µM (inactive)
GI50 (NCI-H460): > 100 µM (inactive)
GI50 (EKVX): > 100 µM (inactive)
GI50 (SF-295): > 100 µM (inactive)
GI50 (HOP-18): > 100 µM (inactive)
GI50 (NCI-H23): > 100 µM (inactive)
GI50 (UACC-257): > 100 µM (inactive)
GI50 (LOX IMVI): > 100 µM (inactive)
GI50 (DMS-273): > 100 µM (inactive)
GI50 (MOLT-4): > 100 µM (inactive)
GI50 (ACHN): > 100 µM (inactive)
GI50 (A498): > 100 µM (inactive)
GI50 (M14): > 100 µM (inactive)
GI50 (SR): > 100 µM (inactive)
GI50 (SW-620): > 100 µM (inactive)
GI50 (UO-31): > 100 µM (inactive)
GI50 (OVCAR-3): > 100 µM (inactive)
GI50 (HOP-92): > 100 µM (inactive)
GI50 (SK-MEL-2): > 100 µM (inactive)
GI50 (LXFL 529): > 100 µM (inactive)
GI50 (DMS-114): > 100 µM (inactive)
GI50 (786-0): > 100 µM (inactive)
GI50 (M19-MEL): > 100 µM (inactive)
GI50 (HL-60): > 100 µM (inactive)
GI50 (DLD-1): > 100 µM (inactive)
GI50 (SN12C): > 100 µM (inactive)
GI50 (A549): > 100 µM (inactive)
GI50 (RXF 393): > 100 µM (inactive)
GI50 (HT-29): > 100 µM (inactive)
GI50 (SK-MEL-5): > 100 µM (inactive)
GI50 (KM12): > 100 µM (inactive)
GI50 (CCRF-CEM): > 100 µM (inactive)
GI50 (SK-MEL-28): > 100 µM (inactive)
GI50 (SF-268): > 100 µM (inactive)
GI50 (HCT-116): > 100 µM (inactive)
GI50 (RPMI-8226): > 100 µM (inactive)
GI50 (XF498): > 100 µM (inactive)
GI50 (OVCAR-4): > 100 µM (inactive)
GI50 (COLO 205): > 100 µM (inactive)

O=C1C2C3C=CC(C2C(=O)N1CO)C1C2C(=O)N(CO)C(=O)C2C31 (centres undefined)
GI50 (SNB-75): 70.8 µM (inactive)
GI50 (KM-20L2): > 31.6 µM (inactive)
GI50 (HOP-62): > 100 µM (inactive)
GI50 (SNB-78): > 100 µM (inactive)
GI50 (CAKI-1): > 100 µM (inactive)
GI50 (OVCAR-5): > 100 µM (inactive)
GI50 (RXF 631): > 54.6 µM (inactive)
GI50 (Malme-3M): > 100 µM (inactive)
GI50 (HCC 2998): > 100 µM (inactive)
GI50 (TK-10): > 100 µM (inactive)
GI50 (SNB-19): > 100 µM (inactive)
GI50 (U-251): > 67.1 µM (inactive)
GI50 (K562): > 48.6 µM (inactive)
GI50 (HCT-15): 37 µM
GI50 (IGROV-1): > 100 µM (inactive)
GI50 (UACC-62): > 100 µM (inactive)
GI50 (SF-539): > 61 µM (inactive)
GI50 (OVCAR-8): 36.4 µM (inactive)
GI50 (SK-OV-3): > 100 µM (inactive)
GI50 (NCI-H460): 27.9 µM (inactive)
GI50 (EKVX): > 100 µM (inactive)
GI50 (SF-295): > 100 µM (inactive)
GI50 (HOP-18): 43.4 µM (inactive)
GI50 (NCI-H23): > 100 µM (inactive)
GI50 (UACC-257): > 100 µM (inactive)
GI50 (LOX IMVI): > 45 µM (inactive)
GI50 (DMS-273): > 44.5 µM (inactive)
GI50 (MOLT-4): 74.1 µM (inactive)
GI50 (ACHN): > 44.9 µM (inactive)
GI50 (NCI-H522): > 100 µM (inactive)
GI50 (A498): > 100 µM (inactive)
GI50 (M14): > 100 µM (inactive)
GI50 (SR): 22.5 µM (inactive)
GI50 (SW-620): 33.5 µM (inactive)
GI50 (NCI-H226): > 100 µM (inactive)
GI50 (UO-31): > 100 µM (inactive)
GI50 (OVCAR-3): > 92.9 µM (inactive)
GI50 (HOP-92): > 100 µM (inactive)
GI50 (SK-MEL-2): > 100 µM (inactive)
GI50 (LXFL 529): > 81.1 µM (inactive)
GI50 (DMS-114): 42 µM (inactive)
GI50 (786-0): > 44 µM (inactive)
GI50 (M19-MEL): > 68.5 µM (inactive)
GI50 (DLD-1): > 46.9 µM (inactive)
GI50 (SN12C): > 69.8 µM (inactive)
GI50 (A549): > 54.2 µM (inactive)
GI50 (RXF 393): > 81.7 µM (inactive)
GI50 (HT-29): 92.5 µM (inactive)
GI50 (SK-MEL-5): > 83 µM (inactive)
GI50 (KM12): > 74.3 µM (inactive)
GI50 (CCRF-CEM): 23.6 µM (inactive)
GI50 (SK-MEL-28): > 84.1 µM (inactive)
GI50 (SF-268): > 50.4 µM (inactive)
GI50 (HCT-116): > 44.5 µM (inactive)
GI50 (RPMI-8226): 21.8 µM (inactive)
GI50 (XF498): > 100 µM (inactive)
GI50 (OVCAR-4): > 45.8 µM (inactive)
GI50 (COLO 205): > 48.2 µM (inactive)
